The values below come from US20170234881A1, “METHODS OF DIAGNOSING AND TREATING CANCER” (INSERM ( INSTITUT NATIONAL DE LA SANTÉ ET DE LA RECHERCHE …, priority 2014, published 2017).

The subject of one test is shHSD2 MCF7 cells. The experiment in a line: Invasiveness of shHSD2 MCF7 cells (matrigel-coated filters). The class given is cell-based, human. Conditions: OCDO 5 μM for 72 h. On the procedure: FIG. 7. Knock-down of 11βHSD2 decreases cell proliferation, invasion and survival in MCF7 cells as well as tumor growth and OCDO reverses these effects. shC or shHSD2 MCF7 cells were analyzed as followed: (A) The proliferation of sh-C or shHSD2 cells treated or not with OCDO 5 μM 24 h was measured using quantification of DNA BrDU incorporation as described in FIG. 2A. (B) The proliferation of sh-C or shHSD2 cells treated or not with increasing concentration of cortisone for 24 h was measured as in (A). (C) The invasiveness of sh-C or shHSD2 cells treated or not with OCDO 5 μM for 72 h was assayed using matrigel-coated filters. (D) the formation of colony by sh-C or shHSD2 cells treated or not with OCDO 1 μM was quantified as described in FIG. 6F. […] Animals were monitored for tumor growth twice a week. […] (F) Mean (±s.e.m) of Ki67 positive cell number determined from IHC staining of shC or shHSD2 MCF7 tumor sections from (E), n=8, *P<0.05 (Student's t-test) using HistoQuant, Pannoramic Viewer (3DHistech).
Invasion assays were carried out using Bio-Coat migration chambers (BD Falcon) with 8 μm filters previously coated with matrigel. […] The entire membranes were mounted on glass slides, and were counted under a microscope. […]

Another test deals with TS/A cells. The experiment in a line: Cell proliferation assay (BrDU incorporation), TS/A. The format is cell-based, mouse. Particulars: TS/A cells treated 24 h, concentration-dependent, level reached. The method, then:
FIG. 2. OCDO is a tumor promoter in vitro and in vivo and its inhibition contributes to the anti-tumor effects of Tam and DDA. (A, B) Histograms representing the effect of OCDO or 17β-estrogen (E2) on MCF7 (A) and TS/A (B) cell proliferation after 24 h treatment using a colorimetric immunoassay measuring BrDU incorporation in DNA (C, D) Histogram representing the effect of OCDO on MCF7 (C) and TS/A (D) cell invasion. Data are the mean of three separate experiments (±[…]) Mice were implanted s.c. with MCF7 (E) or TS/A (F) cells and animals (8 per group) were treated s.c. every day starting on the day of implantation with either the solvent vehicle or OCDO (16 μg/kg for MCF7 or 50 μg/kg for TS/A). Animals were monitored for tumour growth twice a week. The data are representative of three independent experiments. The mean tumor volume±s.e.m is shown, *P<0.05, **P<0.01, ***P<0.001 (analysis of variance (ANOVA), Dunnett's post test). […] (I, J, K). Murine […], or human MDA-MB231 (J) or MDA-MB468 (K) cells implanted s.c. into mice (8 per group) and animals were treated s.c. with either the solvent vehicle or OCDO (16 μg/kg for MDA-MB-231 and MDA-MB-468 or 50 μg/kg for E0771). […] At the end of this time, cells were incubated with BrDU for an additional 8 h and then evaluated for proliferation using the ELISA kit, Roche Diagnostic, as indicated by the manufacturer.

On to `CC(C)CCC[C@@H](C)[C@H]1CC[C@H]2[C@@H]3CC(=O)[C@@]4(O)C[C@@H](O)CC[C@]4(C)[C@H]3CC[C@]12C` [OCDO, 6-oxo-cholestan-3β,5α-diol], for which the “effect on the inhibition of cell invasion mediated by 11βHSD2 knock-down” value in the test on shHSD2 MCF7 cells is given as “reversed the inhibition of cell invasion”. In addition, the “growth rate (cell proliferation) relative to the control” value with TS/A cells is given as 1.7 fold.
